In assay [1] the target is Cyclin-dependent kinase 2 (Homo sapiens, UniProt P24941). The experiment in a line: In vitro inhibition of Cyclin-dependent kinase 2 was determined.
Assay [2] deals with Cyclin-dependent kinase 4 (Homo sapiens, UniProt P11802). The experiment in a line: In vitro inhibition of Cyclin-dependent kinase 4 was determined.

SMILES strings stand for the structures.

Results on 17 compounds are retold here after ChEMBL document CHEMBL1136191, “Cyclin-dependent kinase 4 inhibitors as a treatment for cancer. Part 1: identification and optimisation of substituted 4,6-bis anilino pyrimidines” (Bioorg Med Chem Lett, 2003).

The IC50 is the point on the concentration scale where inhibition reaches its midpoint.

Chain of Cyclin-dependent kinase 4 (P11802 whole entry): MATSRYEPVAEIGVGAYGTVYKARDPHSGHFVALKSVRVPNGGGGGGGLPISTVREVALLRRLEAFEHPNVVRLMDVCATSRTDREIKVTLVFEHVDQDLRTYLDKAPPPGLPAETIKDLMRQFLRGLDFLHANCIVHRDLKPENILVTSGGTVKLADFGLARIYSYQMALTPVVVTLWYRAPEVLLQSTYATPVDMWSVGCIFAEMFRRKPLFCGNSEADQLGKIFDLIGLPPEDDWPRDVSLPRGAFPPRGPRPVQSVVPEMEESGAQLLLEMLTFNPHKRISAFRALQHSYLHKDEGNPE

For `CN(C)CC(O)COc1ccc(Nc2cc(Nc3ccccc3)ncn2)cc1` (configuration not stated), the results for the IC50 in assay [1] and in assay [2] were above 100 µM and 33 µM, respectively.

Consider `CN(C)CC(O)COc1ccc(Nc2cc(Nc3ccc(F)cc3F)ncn2)cc1` (configuration not stated), for which the results for the concentration for half-maximal inhibition (IC50) in assay [1] and in assay [2] were 93 µM and 15 µM, respectively.

For `CN(C)CC(O)COc1ccc(Nc2cc(Nc3ccccc3[N+](=O)[O-])ncn2)cc1` (configuration not stated), the IC50 in assay [1] is 25 µM; in assay [2], 2 µM.

With `CN(C)CC(O)COc1ccc(Nc2cc(Nc3c(F)cccc3F)ncn2)cc1` (configuration not stated), the IC50 in assay [2] came to 9 µM.

In the case of `CN(C)CC(O)COc1ccc(Nc2cc(N(Cc3ccccc3)c3cc(Cl)ccc3Cl)ncn2)cc1` (configuration not stated), the IC50 in assay [1] is above 100 µM; in assay [2], 5 µM.

Turning to `CN(C)CC(O)COc1ccc(Nc2cc(Nc3ccccc3F)ncn2)cc1` (configuration not stated), the IC50 in assay [1] was above 100 µM; in assay [2], 27 µM.

Consider `CN(C)CC(O)COc1ccc(Nc2cc(N(CCC#N)c3cc(Cl)ccc3Cl)ncn2)cc1` (configuration not stated), for which the IC50 in assay [1] was 5 µM; in assay [2], 0.5 µM.

As to `CN(C)CC(O)COc1ccc(Nc2cc(Nc3ccccc3Cl)ncn2)cc1` (configuration not stated), the figures for the IC50 in assay [1] and in assay [2] were 95 µM and 8 µM, respectively.

On to `CN(C)CC(O)COc1ccc(Nc2cc(Nc3ccccc3Br)ncn2)cc1` (configuration not stated), for which the IC50 in assay [1] came to 28 µM; in assay [2], 4 µM.

For the compound `CC(C)c1ccccc1Nc1cc(Nc2ccc(OCC(O)CN(C)C)cc2)ncn1` (configuration not stated), the IC50 in assay [1] was found to be 24 µM; in assay [2], 18 µM.

Take `Cc1ccc(N(CC#N)c2cc(Nc3ccc(OCC(O)CN(C)C)cc3)ncn2)c(Br)c1` (configuration not stated): the IC50 in assay [1] turned out to be 3 µM; in assay [2], 0.1 µM.

Consider `COc1ccccc1Nc1cc(Nc2ccc(OCC(O)CN(C)C)cc2)ncn1` (configuration not stated), for which the IC50 in assay [1] worked out at 85 µM; in assay [2], 23 µM.

As to `CN(C)CC(O)COc1ccc(Nc2cc(Nc3cc(Cl)ccc3Cl)ncn2)cc1` (configuration not stated), the IC50 in assay [1] was 22 µM; in assay [2], 1 µM.

For the compound `CN(C)CC(O)COc1ccc(Nc2cc(N(CC#N)c3cc(Cl)ccc3Cl)ncn2)cc1` (configuration not stated), the IC50 amounted to 1 µM in assay [1] and 0.05 µM in assay [2].

Regarding `CN(C)CC(O)COc1ccc(Nc2cc(Nc3cc(C(F)(F)F)ccc3F)ncn2)cc1` (configuration not stated), in assay [2], half-maximal inhibition (IC50) was put at 6 µM. This counts as single-digit micromolar.

For the compound `Cc1ccccc1Nc1cc(Nc2ccc(OCC(O)CN(C)C)cc2)ncn1` (configuration not stated), the figures for the IC50 in assay [1] and in assay [2] were 39 µM and 8 µM, respectively.

As for `C#CCN(c1cc(Nc2ccc(OCC(O)CN(C)C)cc2)ncn1)c1cc(Cl)ccc1Cl` (configuration not stated), the IC50 in assay [1] was determined as 19 µM; in assay [2], 0.8 µM.
